# Experimental data reported in paper PMC4147338, “Host defense peptides for treatment of colorectal carcinoma – a comparative in vitro and in vivo analysis” (Oncotarget, 2014).
# Tests used:
# [1] = test system: HDP-responsive cell lines (e.g. HROC24); assay: Western blot analysis of Bax and HSP90 expression; format: cell-based, human; conditions: normalized to β-actin, untreated =1
# Experimental: Figure 5 Apoptosis/necrosis assay and Western blot analysis (A, B) HROC18 and HROC24 cells were exposed to increasing HDP concentrations for a period of 24 hours. Tumor cells were stained with YO-PRO-1 for detecting early and late apoptotic tumor cells. Prior to flow cytometric analysis, PI was added to detect necrotic cells, as well. (A) Representative dot plots showing HDP-treated HROC24 cells at a concentration of 5 μM. Lower right quadrant: early apoptotic cells; upper right quadrant: late apoptotic cells; upper left quadrant: necrotic cells. (B) For cell death quantification, values of background cell death (=untreated controls) were subtracted from values of HDP-treated cells. […] (D, F) Quantitative analysis of BAX and HSP90 expression in HDP-treated cells was done as described in material & methods. Expression levels of untreated cells were set to be =1 and x-fold increases of HDP-exposed cells were calculated. […]
# Cellular protein extracts were obtained from HDP-treated and control cells following incubation with lysis buffer (1 M Tris, pH 7.5, 5 M sodium chloride, 0.25 M ethylenediaminetetraacetic acid, 10% (v/v) triton-x 100, 4% (v:v) sodium azide, 0.1 M phenylmethane-sulfonylfluoride, protease inhibitor cocktail (Roche, Mannheim, Germany)) on ice for 30 min. […] Signal integrated intensities were quantified applying the Odyssey® software version 3.16. […]
# HROC18 cells = assay: Apoptosis/necrosis assay, YO-PRO-1/PI flow cytometry; format: cell-based, human; conditions: HROC18, 24h, background cell death subtracted
# Experimental: (§1) Figure 5 Apoptosis/necrosis assay and Western blot analysis (A, B) HROC18 and HROC24 cells were exposed to increasing HDP concentrations for a period of 24 hours. Tumor cells were stained with YO-PRO-1 for detecting early and late apoptotic tumor cells. Prior to flow cytometric analysis, PI was added to detect necrotic cells, as well. (A) Representative dot plots showing HDP-treated HROC24 cells at a concentration of 5 μM. Lower right quadrant: early apoptotic cells; upper right quadrant: late apoptotic cells; upper left quadrant: necrotic cells. (B) For cell death quantification, values of background cell death (=untreated controls) were subtracted from values of HDP-treated cells. Left panel: HROC24 cell; right panel: HROC18 cells. (C, E) Representative western blot results showing HDP-treated HROC24 cells (20 μg of total protein per lane). (D, F) Quantitative analysis of BAX and HSP90 expression in HDP-treated cells was done as described in material & methods. Expression levels of untreated cells were set to be =1 and x-fold increases of HDP-exposed cells were calculated. […] Values are given as mean ± SD.
# (§2) Cell death was quantified by YO-PRO-1 (Invitrogen) and PI double staining. Selected tumor cells (HROC24 and HROC18, 1 × 10^4 cells/well) were seeded in 24-well plates and incubated overnight. Thereafter, peptides were added in increasing concentrations (ranging from 0.25 μM – 12.5 μM). Untreated cells served as living control. Following a 24-hour incubation period, supernatants were collected; cells were trypsinized and washed in PBS. Cells were stained with YO-PRO-1 (final concentration: 0.2 μM) for 20 min at room temperature. Prior to flow cytometric analysis, PI was added at a final concentration of 100 μg/ml. For cell death quantification, values of background cell death (=untreated controls) were subtracted from values of HDP-treated cells.
# [2] = test system: whole blood cells of healthy donors; assay: Hemolysis assay, hemoglobin release; format: cell-based, human; conditions: whole blood of healthy donors (n=6), 0.25-12.5 μM, 120 min incubation (text: 24h), absorption 540 nm, 1% SDS = maximum lysis
# Experimental: Figure 6 Hemolysis and lymphotoxicity assays (A) Hemolytic activity of HDPs was determined by hemoglobin release from whole blood cells after 120 min incubation. Negative controls were left untreated whereas positive controls (=maximum lysis) were treated with 1% SDS. Hemolytic activity was quantified as described in the material and methods section. (B) PBLs were incubated in the presence of increasing HDP concentrations for a period of 24 hours. Viability was analyzed using Calcein-AM and quantified in comparison to untreated controls, which were set to be =1. […] Experiments were performed in triplicates. Values are given as the mean x-fold increase ± SD.
# Hemolytic activity of HDPs was determined by hemoglobin release from whole blood cells after 120 min incubation. Briefly, whole blood of healthy donors (n=6) was seeded in 96-well plates and supplemented with HDPs at given concentrations (ranging from: 0.25 μM – 12.5 μM). Negative controls were left untreated and positive controls (=maximum lysis) were treated with 1% SDS. Following the incubation period, cell-free supernatants were transferred into a new 96-well plate and absorption was measured on a plate reader at 540 nm (reference wave length: 690 nm). Hemolytic activity was quantified according to the following formula: % hemolysis=((OD540nm sample−OD540nm buffer)/OD540nm max−OD540nm buffer)*100
# HCT116 cells = assay: Calcein-AM cell viability staining, 24h; format: cell-based, human; conditions: HCT116, 24h, 0.25-12.5 μM
# Experimental: (§3) Figure 4 HDP-mediated cytotoxicity towards tumor cells Quantitative analysis of direct cytotoxicity towards tumor cells following a 24h incubation period with increasing HDP concentrations. Viability was assessed using Calcein-AM staining. Remaining viable tumor cells were quantified in comparison to untreated controls, which were set to be =1. […] Values are given as the mean x-fold increase ± SD. *p<0.05 vs. NK11; **p<0.01 vs. NK11.
# (§4) This assay is based on Calcein-acetoxymethylester (Calcein-AM; Invitrogen, Darmstadt, Germany) staining to detect viable cells within a culture. Tumor and normal (PBL) cells (1-2 × 10^4 cells/well in triplicates) were seeded in 96-well plates and incubated overnight. Thereafter, peptides were added in increasing concentrations (ranging from 0.25 μM – 12.5 μM). Untreated cells served as living cell control. Medium was removed after 1h or 24h, respectively. Calcein-AM ([…]) was added and incubated for 30 min (37°C, 5% CO2). Analysis was performed on a fluorescence multi-well plate reader (Tecan Infinite® M200, Crailsheim, Germany) at an excitation wavelength of 485 nm (emission 535 nm). For estimation of cell viability, the relative fluorescence intensities of Calcein-AM-stained non-treated cells (=live control) were set to be 1, and fluorescence intensities of samples were calculated. Data of at least three independent experiments each performed in […] are given.
# HROC24 cells [3] = assay: Calcein-AM cell viability staining, 24h; format: cell-based, human; conditions: HROC24, 24h, 0.25-12.5 μM
# Experimental: as §3, §4
# [4] = FRET spectroscopy probe dilution assay, membrane intercalation; format: binding; conditions: NBD-PE/rhodamine-PE, peptide 0.2-0.8 μM, 20 mM HEPES 150 mM NaCl pH 7.4, 37°C
# Experimental: FRET spectroscopy served as a sensitive tool to detect lipid dependence of the membrane interaction of antimicrobial peptides. For this, all peptides were added to liposomes consisting of zwitterionic PC alone, of a mixture of PC and of negatively charged PS, as well as of pure PS (Figure 1). All lipid vesicles were doped with donor and acceptor dyes, peptides were added, and the emission intensities of both dyes were monitored over time. An increase of the fluorescence intensity of the donor (IDonor) and a simultaneous decrease of the fluorescence intensity of the acceptor dye (IAcceptor), i.e. a reduced FRET efficacy, indicated an increase in the overall mean distance between labeled phospholipids, and corresponded to an insertion of peptides into the lipid bilayer. For clarity, the IDonor/IAcceptor ratio is shown (Figure 1).
# Figure 1 FRET spectroscopy. (A-C) Binding to and insertion of peptide C7A-D21K into phospholipid membranes (A) C7A-D21K was added at time point 50 s to liposomes (10 μM) consisting of pure PC, (B) a 90:10 molar mixture of PC:PS, and (C) of pure PS, each doubly doped with the fluorescently labeled FRET pair NBD-PE (donor) and rhodamine-PE (acceptor). Intercalation was monitored by measuring donor and acceptor fluorescence emission intensities. For better visualization only the quotient (IDonor/IAcceptor) is shown. Addition of the peptide solvent alone had no effect (dotted grey line). Peptide concentrations used: 0.2 μM (dotted black line, only in C), 0.4 μM (solid grey line, only in C), and 0.8 μM (solid black line). (D-F) Binding to and insertion of peptides at different concentrations into phospholipid membranes. (A) Peptides were added to liposomes consisting of pure PC, (B) a 90:10 molar mixture of PC:PS, and (C) of pure PS, each doubly doped with the fluorescently labeled phospholipid FRET pair NBD-PE (donor) and rhodamine-PE (acceptor). Intercalation was monitored by measuring donor and acceptor fluorescence intensities. The relative increase of the IDonor/IAcceptor ratio 250 s after peptide addition is shown (Increase of IDonor/IAcceptor (%) = (IDonor/IAcceptor (peptide) - IDonor/IAcceptor (control))*100). Peptide concentrations used: 0.2 μM (open bars), 0.4 μM (grey bars), and 0.8 μM (black bars).
# Intercalation of peptides into liposome membranes was determined by FRET spectroscopy applied as a probe dilution assay. Liposomes were prepared by dissolving appropriate lipid mixtures (pure PC, a 90:10 molar mixture of PC:PS, as well as pure PS, each doped with 1% of the donor dye NBD-PE and 1% of the acceptor dye rhodamine-PE) in chloroform and drying them under a gentle stream of nitrogen. The resulting lipid film was dispersed in 20 mM HEPES, 150 mM NaCl, pH 7.4, sonicated for 30 min and subjected to 3-4 temperature cycles from 4 to 60°C with an incubation period of 30 min at each step. Lipid dispersions were stored at 4°C overnight before use. For the assay, donor fluorescence (NBD) was excited at 470 nm, and donor (NBD, ID at 531 nm) as well as acceptor (rhodamine, IA at 593 nm) emission intensities were monitored over time. An increase of the ratio of the donor fluorescence intensity to that of the acceptor fluorescence intensity (IDonor/I^Acceptor) was interpreted as a membrane intercalation event. This ratio depends on the Förster efficiency, therefore a rising value means that the mean distance separation of donor and acceptor dyes is raising. The assay was performed at 37°C.
# HROC24 cells [5] = assay: Apoptosis/necrosis assay, YO-PRO-1/PI flow cytometry; format: cell-based, human
# Experimental: as §1, §2
Compound,HSP90 protein expression [1],total killing (HROC18 cells),hemolysis [2],Lytic activity towards tumor cells (HCT116 cells),Lytic activity towards tumor cells (HROC24 cells [3]),Membrane intercalation (increase of IDonor/IAcceptor) ([4]; PC:PS 90:10 liposomes 10 μM),Membrane intercalation (increase of IDonor/IAcceptor) ([4]; pure PS liposomes 10 μM),"Levels of viable HROC24 cells (HROC24 cells [5]; 24h, higher concentrations)","Tumor killing compared with Melittin (HROC24 cells [5]; HROC24, 24h)"
CC[C@H](C)[C@H](NC(=O)CN)C(=O)NCC(=O)N[C@@H](C)C(=O)N[C@H](C(=O)N[C@@H](CC(C)C)C(=O)N[C@@H](CCCCN)C(=O)N[C@H](C(=O)N[C@@H](CC(C)C)C(=O)N[C@H](C(=O)N[C@H](C(=O)NCC(=O)N[C@@H](CC(C)C)C(=O)N1CCC[C@H]1C(=O)N[C@@H](C)C(=O)N[C@@H](CC(C)C)C(=O)N[C@H](C(=O)N[C@@H](CO)C(=O)N[C@@H](Cc1c[nH]c2ccccc12)C(=O)N[C@H](C(=O)N[C@@H](CCCCN)C(=O)N[C@@H](CCCNC(=N)N)C(=O)N[C@@H](CCCCN)C(=O)N[C@@H](CCCNC(=N)N)C(=O)N[C@@H](CCC(N)=O)C(=O)N[C@@H](CCC(N)=O)C(N)=O)[C@@H](C)CC)[C@@H](C)CC)[C@@H](C)O)[C@@H](C)O)C(C)C)C(C)C [Melittin],dose-dependently induced,71%,below 20%,,,,,,
"KILRGVAKKIMRTFLRR ILTGKK [Peptide C7A-Δ, C7A shortened by deletion of four amino acid residues]",,up to 60%,,as effective as the reference compound Mellitin,as effective as the reference compound Mellitin,slightly impaired,pronounced,17%,as effective in tumor killing as Melittin
